Assay results published in ChEMBL document CHEMBL1201862, “PubChem BioAssay data set” (2004).
Activity calls are given as the source filed them.

Assays:
[1] = target: MAP/microtubule affinity-regulating kinase 3 (Homo sapiens, UniProt P27448); type: functional;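 note: MARK3 affinity measured as one member of a kinome panel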
[2] = target: Protein kinase C theta type (Homo sapiens, UniProt Q04759); experiment: Navigating the Kinome. Panel member name: PRKCQ; type: functional
[3] = target: Macrophage-stimulating protein receptor (Homo sapiens, UniProt Q04912); experiment: Navigating the Kinome. Panel member name: MST1R; type: functional
[4] = target: Tyrosine-protein kinase JAK3 (Homo sapiens, UniProt P52333); type: functional
[5] = target: Dual specificity mitogen-activated protein kinase kinase 2 (Homo sapiens, UniProt P36507); experiment: Navigating the Kinome. Panel member name: MAP2K2; type: functional
Dual specificity mitogen-activated protein kinase kinase 2, sequence (P36507 whole entry): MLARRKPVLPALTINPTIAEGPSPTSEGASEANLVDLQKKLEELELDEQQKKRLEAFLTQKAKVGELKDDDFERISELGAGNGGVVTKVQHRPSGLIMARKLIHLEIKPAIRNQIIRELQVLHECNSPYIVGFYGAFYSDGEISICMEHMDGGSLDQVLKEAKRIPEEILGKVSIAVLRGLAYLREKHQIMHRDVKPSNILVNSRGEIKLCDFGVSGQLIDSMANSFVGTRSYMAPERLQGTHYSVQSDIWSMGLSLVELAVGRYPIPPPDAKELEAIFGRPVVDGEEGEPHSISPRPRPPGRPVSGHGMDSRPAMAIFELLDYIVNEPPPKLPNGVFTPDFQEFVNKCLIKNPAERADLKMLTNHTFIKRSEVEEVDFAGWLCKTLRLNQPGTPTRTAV

Activin receptor type-1 = Activin receptor type-1 (Homo sapiens, UniProt Q04771); experiment: Navigating the Kinome. Panel member name: ACVR1; type: functional
Activin receptor type-1, sequence (Q04771 whole entry): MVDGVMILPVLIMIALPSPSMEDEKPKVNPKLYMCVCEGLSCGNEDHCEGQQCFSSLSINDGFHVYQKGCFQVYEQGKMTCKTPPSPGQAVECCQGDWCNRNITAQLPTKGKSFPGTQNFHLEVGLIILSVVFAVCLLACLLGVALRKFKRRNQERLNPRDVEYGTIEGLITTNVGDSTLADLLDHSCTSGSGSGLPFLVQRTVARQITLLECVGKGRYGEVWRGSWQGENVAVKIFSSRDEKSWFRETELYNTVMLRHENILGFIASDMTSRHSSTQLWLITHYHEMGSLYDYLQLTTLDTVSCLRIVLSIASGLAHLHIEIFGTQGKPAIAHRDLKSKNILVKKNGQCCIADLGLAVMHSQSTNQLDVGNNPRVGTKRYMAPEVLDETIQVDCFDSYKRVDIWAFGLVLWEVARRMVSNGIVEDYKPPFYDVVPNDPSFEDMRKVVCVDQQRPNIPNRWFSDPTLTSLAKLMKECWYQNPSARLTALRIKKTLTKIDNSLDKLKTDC

[6] = target: Vascular endothelial growth factor receptor 1 (Homo sapiens, UniProt P17948); type: functional;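 note: measured within a kinome-wide profiling panel, FLT1 as the panel member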
Vascular endothelial growth factor receptor 1, sequence (P17948 whole entry): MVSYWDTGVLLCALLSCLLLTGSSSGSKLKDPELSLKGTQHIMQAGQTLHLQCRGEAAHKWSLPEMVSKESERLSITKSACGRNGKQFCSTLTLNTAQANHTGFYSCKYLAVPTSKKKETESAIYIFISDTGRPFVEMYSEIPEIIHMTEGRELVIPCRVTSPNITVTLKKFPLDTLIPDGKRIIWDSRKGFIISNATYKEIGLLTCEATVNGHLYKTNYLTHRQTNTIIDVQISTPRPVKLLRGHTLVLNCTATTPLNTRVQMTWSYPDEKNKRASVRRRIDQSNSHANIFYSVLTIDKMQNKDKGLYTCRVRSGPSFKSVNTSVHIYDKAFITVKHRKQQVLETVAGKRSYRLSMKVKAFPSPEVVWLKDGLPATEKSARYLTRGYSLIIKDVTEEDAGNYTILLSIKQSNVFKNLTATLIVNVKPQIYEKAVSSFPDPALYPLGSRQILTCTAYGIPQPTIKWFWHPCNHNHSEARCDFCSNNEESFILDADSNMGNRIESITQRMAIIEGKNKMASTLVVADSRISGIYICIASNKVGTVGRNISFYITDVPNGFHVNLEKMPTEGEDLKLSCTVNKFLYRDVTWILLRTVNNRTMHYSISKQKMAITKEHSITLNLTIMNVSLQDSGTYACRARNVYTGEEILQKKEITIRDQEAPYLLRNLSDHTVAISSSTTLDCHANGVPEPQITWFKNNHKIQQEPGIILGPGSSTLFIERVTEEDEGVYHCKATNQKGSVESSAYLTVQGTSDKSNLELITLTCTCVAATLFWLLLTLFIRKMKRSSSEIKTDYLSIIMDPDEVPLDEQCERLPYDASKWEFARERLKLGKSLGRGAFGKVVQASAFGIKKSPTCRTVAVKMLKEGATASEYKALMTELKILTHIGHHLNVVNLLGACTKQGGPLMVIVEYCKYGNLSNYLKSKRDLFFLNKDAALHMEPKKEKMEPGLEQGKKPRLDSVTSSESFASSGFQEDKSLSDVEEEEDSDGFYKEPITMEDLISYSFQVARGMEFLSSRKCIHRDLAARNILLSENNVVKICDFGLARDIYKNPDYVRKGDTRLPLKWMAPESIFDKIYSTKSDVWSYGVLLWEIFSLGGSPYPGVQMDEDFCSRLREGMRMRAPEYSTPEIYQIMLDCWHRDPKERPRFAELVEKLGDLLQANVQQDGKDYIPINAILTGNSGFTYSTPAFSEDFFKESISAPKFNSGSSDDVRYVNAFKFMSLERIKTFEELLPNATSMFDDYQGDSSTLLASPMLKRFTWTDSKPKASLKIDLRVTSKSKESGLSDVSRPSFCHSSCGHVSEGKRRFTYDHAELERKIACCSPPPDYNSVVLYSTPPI

[7] = target: Tyrosine-protein kinase Lck (Homo sapiens, UniProt P06239); type: functional;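 note: lck was assayed as one member of a kinase panel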
[8] = target: Leucine-rich repeat serine/threonine-protein kinase 2 (Homo sapiens, UniProt Q5S007); type: functional;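 note: value from a broad kinome-wide panel profiling study in which LRRK2 was one of the kinases tested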
[9] = target: Cyclin-dependent kinase 8 (Homo sapiens, UniProt P49336); experiment: Navigating the Kinome. Panel member name: CDK8; type: functional
[10] = target: Dual specificity mitogen-activated protein kinase kinase 1 (Homo sapiens, UniProt Q02750); experiment: Navigating the Kinome. Panel member name: MAP2K1; type: functional
Activated CDC42 kinase 1 = Activated CDC42 kinase 1 (Homo sapiens, UniProt Q07912); experiment: Navigating the Kinome. Panel member name: ACK1; type: functional
Activated CDC42 kinase 1, sequence (Q07912 whole entry): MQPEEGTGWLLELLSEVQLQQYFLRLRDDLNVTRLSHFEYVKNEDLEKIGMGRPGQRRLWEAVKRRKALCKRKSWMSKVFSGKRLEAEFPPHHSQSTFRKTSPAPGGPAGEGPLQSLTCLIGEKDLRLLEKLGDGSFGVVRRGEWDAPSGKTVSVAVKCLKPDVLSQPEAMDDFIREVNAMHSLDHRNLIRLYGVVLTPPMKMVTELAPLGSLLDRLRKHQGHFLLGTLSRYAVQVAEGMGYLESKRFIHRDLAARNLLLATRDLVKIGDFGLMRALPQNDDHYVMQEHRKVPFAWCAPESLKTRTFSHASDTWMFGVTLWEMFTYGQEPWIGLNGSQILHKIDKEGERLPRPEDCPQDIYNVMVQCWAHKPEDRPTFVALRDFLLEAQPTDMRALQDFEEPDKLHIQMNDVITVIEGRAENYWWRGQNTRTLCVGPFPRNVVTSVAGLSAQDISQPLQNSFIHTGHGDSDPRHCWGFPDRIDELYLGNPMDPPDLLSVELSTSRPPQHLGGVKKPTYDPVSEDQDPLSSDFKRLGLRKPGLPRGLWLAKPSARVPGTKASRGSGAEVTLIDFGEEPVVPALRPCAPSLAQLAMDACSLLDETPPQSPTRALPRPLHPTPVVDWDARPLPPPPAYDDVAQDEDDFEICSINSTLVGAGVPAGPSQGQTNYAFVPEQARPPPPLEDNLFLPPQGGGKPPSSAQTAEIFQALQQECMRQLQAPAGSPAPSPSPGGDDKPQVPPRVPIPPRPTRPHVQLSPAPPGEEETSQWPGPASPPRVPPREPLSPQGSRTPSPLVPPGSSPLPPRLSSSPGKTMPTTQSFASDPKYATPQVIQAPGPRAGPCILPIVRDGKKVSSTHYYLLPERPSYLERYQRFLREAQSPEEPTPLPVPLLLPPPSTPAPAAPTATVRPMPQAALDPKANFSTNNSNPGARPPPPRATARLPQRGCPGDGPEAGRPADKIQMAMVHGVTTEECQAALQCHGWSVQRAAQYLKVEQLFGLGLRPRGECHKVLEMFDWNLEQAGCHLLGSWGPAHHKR

[11] = target: Dual specificity protein kinase CLK2 (Homo sapiens, UniProt P49760); type: functional
Dual specificity protein kinase CLK2, sequence (P49760 whole entry): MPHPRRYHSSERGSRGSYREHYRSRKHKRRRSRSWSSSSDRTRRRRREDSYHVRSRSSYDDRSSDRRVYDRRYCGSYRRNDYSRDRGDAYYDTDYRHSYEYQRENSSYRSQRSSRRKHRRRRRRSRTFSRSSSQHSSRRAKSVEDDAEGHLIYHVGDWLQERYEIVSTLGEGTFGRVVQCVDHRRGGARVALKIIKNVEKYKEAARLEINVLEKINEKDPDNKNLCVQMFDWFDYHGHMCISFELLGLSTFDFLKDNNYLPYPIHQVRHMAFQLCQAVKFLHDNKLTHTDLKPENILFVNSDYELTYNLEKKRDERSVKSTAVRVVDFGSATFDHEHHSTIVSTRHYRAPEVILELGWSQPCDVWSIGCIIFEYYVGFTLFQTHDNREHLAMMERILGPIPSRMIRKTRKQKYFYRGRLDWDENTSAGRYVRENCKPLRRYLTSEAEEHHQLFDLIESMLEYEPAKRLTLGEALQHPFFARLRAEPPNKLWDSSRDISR

[12] = target: Platelet-derived growth factor receptor alpha (Homo sapiens, UniProt P16234); experiment: Navigating the Kinome. Panel member name: PDGFRA; type: functional
[13] = target: Hepatocyte growth factor receptor (Homo sapiens, UniProt P08581); type: functional;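 note: kinase panel profiling across the kinome, with MET as the panel member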
[14] = target: Serine/threonine-protein kinase pim-1 (Homo sapiens, UniProt P11309); type: functional
Serine/threonine-protein kinase pim-1, sequence (P11309 whole entry): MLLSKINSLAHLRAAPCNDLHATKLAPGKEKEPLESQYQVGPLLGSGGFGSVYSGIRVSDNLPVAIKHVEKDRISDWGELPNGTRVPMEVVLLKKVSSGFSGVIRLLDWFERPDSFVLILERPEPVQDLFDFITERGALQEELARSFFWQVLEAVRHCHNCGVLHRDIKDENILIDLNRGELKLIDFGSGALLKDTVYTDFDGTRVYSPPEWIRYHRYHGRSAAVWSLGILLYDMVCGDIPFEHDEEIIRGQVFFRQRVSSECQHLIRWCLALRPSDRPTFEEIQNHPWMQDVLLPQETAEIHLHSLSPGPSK

[15] = target: Serine/threonine-protein kinase PAK 4 (Homo sapiens, UniProt O96013); type: functional;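 note: value obtained within a kinome profiling panel in which PAK4 was one of the panel members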
[16] = target: Tyrosine-protein kinase Fyn (Homo sapiens, UniProt P06241); type: functional
[17] = target: Tyrosine-protein kinase JAK2 (Homo sapiens, UniProt O60674); type: functional;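 note: JAK2 tested as one member of a kinase panel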
[18] = target: Mitogen-activated protein kinase kinase kinase kinase 2 (Homo sapiens, UniProt Q12851); type: functional;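 note: measured as one member of a kinome-wide kinase panel, with MAP4K2 as the panel entry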
[19] = target: Mitogen-activated protein kinase 8 (Homo sapiens, UniProt P45983); type: functional;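 note: value comes from one member of a kinome-wide kinase profiling panel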
[20] = target: Inhibitor of nuclear factor kappa-B kinase subunit epsilon (Homo sapiens, UniProt Q14164); experiment: Navigating the Kinome. Panel member name: IKBKE; type: functional
Inhibitor of nuclear factor kappa-B kinase subunit epsilon, sequence (Q14164 whole entry): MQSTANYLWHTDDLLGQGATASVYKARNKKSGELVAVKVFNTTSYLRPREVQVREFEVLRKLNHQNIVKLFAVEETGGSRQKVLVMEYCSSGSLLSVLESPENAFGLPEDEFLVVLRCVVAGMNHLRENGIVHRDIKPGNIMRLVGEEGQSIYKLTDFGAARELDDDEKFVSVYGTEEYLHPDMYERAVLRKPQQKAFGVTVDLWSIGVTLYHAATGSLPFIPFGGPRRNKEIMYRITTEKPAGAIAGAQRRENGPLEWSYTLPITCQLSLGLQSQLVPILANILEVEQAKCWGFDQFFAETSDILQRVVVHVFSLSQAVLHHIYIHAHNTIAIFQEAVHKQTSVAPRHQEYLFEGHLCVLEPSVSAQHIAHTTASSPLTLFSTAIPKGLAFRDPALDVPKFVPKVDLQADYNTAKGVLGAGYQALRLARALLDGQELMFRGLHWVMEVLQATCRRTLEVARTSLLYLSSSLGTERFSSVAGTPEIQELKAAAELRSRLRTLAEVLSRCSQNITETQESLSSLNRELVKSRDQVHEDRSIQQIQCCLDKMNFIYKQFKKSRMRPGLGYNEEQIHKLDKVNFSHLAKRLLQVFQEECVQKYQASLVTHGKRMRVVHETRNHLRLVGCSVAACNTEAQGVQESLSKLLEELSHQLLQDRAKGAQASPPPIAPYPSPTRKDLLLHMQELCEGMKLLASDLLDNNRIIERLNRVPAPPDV

[21] = target: Mast/stem cell growth factor receptor Kit (Homo sapiens, UniProt P10721); type: functional;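 note: KIT entry within a kinase panel assay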
[22] = target: Mitogen-activated protein kinase kinase kinase kinase 4 (Homo sapiens, UniProt O95819); type: functional
[23] = inhibitors of intracellular T. cruzi replication, confirmation, NIH3T3 host cells, beta-gal luminescence (AID 2044); type: functional, cell-based;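 note: intracellular parasites grown in NIH/3T3 mouse fibroblasts as host cells; luminescent beta-galactosidase reporter signal from transgenic T. cruzi replicating inside host cells; inhibitors lower the luminescence signal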
cells = type: functional, cell-based
Nonstructural protein 1 = Nonstructural protein 1 (Influenza A virus, UniProt Q194T2); type: functional, Influenza A virus (A/California/07/2009(H1N1))
Nonstructural protein 1, sequence (Q194T2 whole entry): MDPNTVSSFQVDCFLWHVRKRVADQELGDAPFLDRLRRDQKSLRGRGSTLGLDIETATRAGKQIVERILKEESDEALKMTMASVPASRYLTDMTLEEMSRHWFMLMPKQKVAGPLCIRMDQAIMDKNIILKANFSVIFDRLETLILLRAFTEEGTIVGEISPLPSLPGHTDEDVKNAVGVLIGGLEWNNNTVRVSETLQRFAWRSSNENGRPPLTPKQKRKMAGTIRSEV

[24] = NIH-3T3 fibroblast cytotoxicity, dose response, cytotoxicity control, cell-based, fluorescence, Alamar Blue, secondary assay (AID 2327); type: functional;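 note: NIH-3T3 mouse fibroblasts cultured with fluconazole at 8 µg/mL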
[25] = cytotoxicity in HEK-293T cells, dose response, cytotoxicity control for TCR NF-kB inhibitor project, luminescence, T-cell screen hits (AID 489026); type: functional, cell-based;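 note: cells exposed to compound about 14 hours before the viability readout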
A-375 = experiment: MITF: Counter assay: A375 proliferation Measured in Cell-Based System Using Plate Reader - 2084-03_Inhibitor_Dose_DryPowder_Activity. [Related pubchem assays (depositor defined):AID488944]; type: functional; settings: Homo sapiens
Hexokinase HKDC1 = target: T1, Hexokinase HKDC1 (Homo sapiens, UniProt Q2TB90); experiment: HKDC1 hexokinase inhibitors, dose response, biochemical, W721R variant (AID 504729); type: functional
T1 sequence (Q2TB90 whole entry): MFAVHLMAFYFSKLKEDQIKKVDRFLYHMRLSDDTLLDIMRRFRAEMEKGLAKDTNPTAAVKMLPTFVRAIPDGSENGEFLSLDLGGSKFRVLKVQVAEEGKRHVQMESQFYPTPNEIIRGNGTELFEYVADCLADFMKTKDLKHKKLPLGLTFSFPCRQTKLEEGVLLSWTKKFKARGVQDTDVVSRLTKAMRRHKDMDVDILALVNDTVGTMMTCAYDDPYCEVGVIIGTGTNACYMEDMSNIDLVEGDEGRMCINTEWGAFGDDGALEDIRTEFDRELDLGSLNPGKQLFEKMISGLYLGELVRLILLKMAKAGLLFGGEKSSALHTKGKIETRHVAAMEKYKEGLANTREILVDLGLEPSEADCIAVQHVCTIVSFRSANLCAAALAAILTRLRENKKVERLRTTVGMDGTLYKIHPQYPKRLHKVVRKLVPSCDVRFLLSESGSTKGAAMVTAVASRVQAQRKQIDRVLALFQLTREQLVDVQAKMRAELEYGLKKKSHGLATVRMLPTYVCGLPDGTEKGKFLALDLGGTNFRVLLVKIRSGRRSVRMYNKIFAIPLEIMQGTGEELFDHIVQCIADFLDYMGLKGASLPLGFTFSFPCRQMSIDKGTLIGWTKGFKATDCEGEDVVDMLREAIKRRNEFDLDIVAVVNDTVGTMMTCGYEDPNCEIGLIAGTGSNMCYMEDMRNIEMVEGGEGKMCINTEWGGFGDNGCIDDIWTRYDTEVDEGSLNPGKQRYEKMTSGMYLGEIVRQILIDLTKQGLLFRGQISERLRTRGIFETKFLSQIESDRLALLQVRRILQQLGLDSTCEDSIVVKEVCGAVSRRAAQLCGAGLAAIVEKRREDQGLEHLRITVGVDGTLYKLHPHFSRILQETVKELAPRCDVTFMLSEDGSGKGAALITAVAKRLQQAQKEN

Vero = Vero cell cytotoxicity, cytotoxicity control for flavivirus capping enzyme inhibitors (AID 588742); type: functional; settings: Chlorocebus sabaeus
[26] = Intein inhibitors as potential Tuberculosis drugs, a cytotoxicity screen. [Related pubchem assays (depositor defined):AID2221, AID2223, AID434968, AID435010, AID449749, AID449750, AID489010]; type: functional

O=C1NC(=O)C(c2c[nH]c3ccccc23)=C1c1nc(N2CCNCC2)nc2ccccc12
Ki [1]: 398 nM (active)
Ki [2]: 0.316 nM (active)
Ki [3]: 100 nM (active)
Ki [4]: 1260 nM (active)
Ki [5]: 1260 nM (active)
Ki (Activin receptor type-1): > 3980 nM (inactive)
Ki [6]: > 2510 nM (inactive)
Ki [7]: > 6310 nM (inactive)
Ki [8]: 398 nM (active)
Ki [9]: > 3980 nM (inactive)
Ki [10]: 794 nM (active)
Ki (Activated CDC42 kinase 1): > 3980 nM (inactive)
Ki [11]: > 2510 nM (inactive)
Ki [12]: > 2510 nM (inactive)
Ki [13]: 398 nM (active)
Ki [14]: 100 nM (active)
Ki [15]: 2000 nM (active)
Ki [16]: > 6310 nM (inactive)
Ki [17]: > 2510 nM (inactive)
Ki [18]: 1000 nM (active)
Ki [19]: > 5010 nM (inactive)
Ki [20]: > 3160 nM (inactive)
Ki [21]: > 6310 nM (inactive)
Ki [22]: 200 nM (active)

CCCC(=O)NC(c1ccc(N(C)C)cc1)c1ccc2cccnc2c1O (stereo not drawn)
EC50 [23]: 480 nM (active)
EC50 (cells): 4760 nM (active)
IC50 (Nonstructural protein 1): 17700 nM (active)
EC50 [24]: 22900 nM (inconclusive)
IC50 [25]: > 80000 nM (inactive)

CCc1cc[n+](C2=C([N-]S(=O)(=O)c3cccs3)C(=O)c3ccccc3C2=O)cc1
AC50 (A-375): 35400 nM (active)

O=C(NC1=C(NC2CCS(=O)(=O)C2)C(=O)c2ccccc2C1=O)c1ccccc1 (stereo not drawn)
IC50 (Hexokinase HKDC1): 5140 nM (active)
CC50 (Vero): 7480 nM (active)
CC50 [26]: 5150 nM (active)
